In patent US8987193B2, “Nisin derivatives and the use thereof” (University College Cork—National University of Ireland, Cork, priority 2008, dated 2015):
Entries after “also recorded” stand apart in the source; their conditions may differ. Ends that are not written are not given here.

How the values were obtained:
[1] = tested on: Staph. aureus DPC5245; experiment: Deferred antagonism assay; type: cell-based; settings: producing strain; diameter of zone minus 5 mm; average of duplicates; St. aureus DPC5245
Description: (§1) Deferred antagonism assays were performed by replicating strains on GM17 or GM17 x-gal agar plates and allowing them to grow overnight before overlaying with either GM17/BHI/TS/MH agar (0.75% w/v agar) seeded with the appropriate indicator strain. Zone size was calculated as the diameter of the zone of clearing minus the diameter of bacterial growth (5 mm) For higher throughput screening of N20PXX, XM21VX, XXK22T and XXX banks deferred antagonism assays were performed by replicating strains using a 96 pin replicator (Boekel) or spotting 5 μl of a fresh overnight culture on GM17 agar plates and allowing them to grow overnight. […] Additional sets of indicators were employed to further assess/reassess the bioactivity of a number of strains. […] For well-diffusion assays molten agar was cooled to 48° C. and seeded with the appropriate indicator strain. The inoculated medium was rapidly transferred into sterile Petri plates in 50 ml volumes, allowed to solidify and dried. Wells (4.6 mm in diameter) were then made in the seeded plates. Purified nisin and mutant nisins were resuspended in 0.005% acetic acid, serially diluted, 50 μl volumes were dispensed into the aforementioned wells and the plates incubated at 37° C. overnight. Bioactivity was expressed as arbitrary units/ml (AU/ml) and calculated as the reciprocal of the highest dilution that gave a definite zone multiplied by the conversion factor (i.e. 20 when 50 μl was used) (Ryan et al., 1996).
(§2) As a consequence of the enhanced activities of K22T and K22S, a more in-depth investigation of this region was carried out. Saturation mutagenesis was undertaken to create a bank of nisin A hinge derivatives containing the vast majority of possible amino acid substitutions for each position. Although pPTPL was used successfully for random mutagenesis, its relatively large size of approx 10.5 kb was considered unsuitable for the complete plasmid PCR amplification approach utilized for saturation mutagenesis. A smaller (approx 6 kb) E. coli-L. lactis shuttle vector pCI372 was considered to be potentially more useful. Its suitability with respect to the in trans expression of nisA was confirmed by the ability of pDFO5 to restore the nisin positive phenotype. Saturation mutagenesis was performed on each codon using pDF05 and oligonucleotides (Table 5) that replace the specific codon with a NNK triplet, potentially encoding all 20 standard amino acids. Following complete plasmid amplification and introduction into the intermediate Top10 host, sequence analysis of a pooled bank of pDF05 derivatives confirmed randomization. Introduction of these variants into L. lactis NZ9800 allowed the expression of mutant nisin A peptides for further analysis. […] 46 residue conversions were isolated. All strains, regardless of bioactivity, were assessed with a view to comprehensively assessing the consequences of each individual hinge alteration.
(§3) Values are an average of duplicate experiments and represent zone size (diameter of zone minus diameter of bacterial growth (i.e. 5 mm) relative to that of the NZ9800 pCI372nisA control. X=Mutants not identified.

[2] = tested on: Staph. aureus ST528 (MRSA); experiment: Deferred antagonism assay; type: cell-based; settings: producing strain, diameter of zone minus diameter of bacterial growth (5 mm), average of duplicates
Description: as §1, §2, §3

[3] = tested on: Strep. agalactiae ATCC13813; experiment: Deferred antagonism assay; type: cell-based; settings: producing strain, diameter of zone minus 5 mm, average of duplicates
Description: as §1, §2, §3

[4] = tested on: indicator strains; experiment: Deferred antagonism assays, various indicator strains (summary); type: cell-based; settings: for bioactivity of the producing strain, in words: in general / against the strains tested; for Target strain against which the hinge mutant was selected for enhanced bioactivity: XX and XXX banks, L. lactis HP*: enhanced or equal; for Target strain against which the hinge mutant was selected for enhanced bioactivity / Strain(s) against which the derivative (producing strain) displays enhanced bioactivity: relative to nisin A-producing control; for Strain(s) against which the derivative (producing strain) displays enhanced bioactivity: value = strains listed
How it was run: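 Producer strains were replicated on GM17 or GM17 x-gal agar, grown overnight, then overlaid with GM17, BHI, TS or MH soft agar (0.75% w/v) seeded with the indicator strain. Zone size was taken as the clearing diameter minus the diameter of bacterial growth (5 mm).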

[5] = tested on: L. monocytogenes CBC1; experiment: Deferred antagonism assay; type: cell-based, Listeria monocytogenes; parameters: key: + = Enhanced bioactivity relative to control; − = Bioactivity equal to or less than control; NA = no activity evident; settings: L. mono CBC1; XX and XXX hinge mutant producers
How it was run: (§4)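 Well-diffusion testing of purified nisin variants in 0.005% acetic acid, serially diluted, 37° C overnight; AU/ml = reciprocal of last dilution with definite zone × 20. Deferred antagonism: overnight GM17 colonies overlaid with seeded soft agar (0.75%); zone = clearing diameter minus 5 mm.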

[6] = tested on: L. monocytogenes CBC2; experiment: Deferred antagonism assay; type: cell-based, Listeria monocytogenes; parameters: key: + = Enhanced bioactivity relative to control; − = Bioactivity equal to or less than control; NA = no activity evident; settings: L. mono CBC2; XX and XXX hinge mutant producers
How it was run: as §4

[7] = tested on: L. monocytogenes CBC3; experiment: Deferred antagonism assay; type: cell-based, Listeria monocytogenes; parameters: key: + = Enhanced bioactivity relative to control; − = Bioactivity equal to or less than control; NA = no activity evident; settings: L. mono CBC3; XX and XXX hinge mutant producers
How it was run: as §4

[8] = tested on: L. lactis CBC7; experiment: Deferred antagonism assay; type: cell-based; parameters: key: + = Enhanced bioactivity relative to control; − = Bioactivity equal to or less than control; NA = no activity evident; settings: XX and XXX hinge mutant producers
How it was run: as §4

[9] = tested on: L. lactis CBC8; experiment: Deferred antagonism assay; type: cell-based; parameters: key: + = Enhanced bioactivity relative to control; − = Bioactivity equal to or less than control; NA = no activity evident; settings: XX and XXX hinge mutant producers
How it was run: as §4

[10] = tested on: S. aureus CBC4; experiment: Deferred antagonism assay; type: cell-based; parameters: key: + = Enhanced bioactivity relative to control; − = Bioactivity equal to or less than control; NA = no activity evident; settings: XX and XXX hinge mutant producers
How it was run: as §4

[11] = tested on: L. plantarum CBC6; experiment: Deferred antagonism assay; type: cell-based, Lactobacillus plantarum; parameters: key: + = Enhanced bioactivity relative to control; − = Bioactivity equal to or less than control; NA = no activity evident; settings: XX and XXX hinge mutant producers
How it was run: as §4

Row | Substance | zone size relative to that of the NZ9800 pCI372nisA control [1] | zone size relative to that of the NZ9800 pCI372nisA control [2] | zone size relative to that of the NZ9800 pCI372nisA control [3] | bioactivity of the producing strain, in words [4] | also measured
1 | K22E: nisin A derivative, hinge substitution K22E; no detectable production (ITSISLCTPGCKTGALMGCNMETATCHCSIHVSK; cysteine pairing not given here; also: lantibiotic nisin-A; UniProt P13068 24-57, looked up, variant K22E) | 0% | 0% | 0% |  | 
2 | K22R: nisin A derivative, hinge substitution K22R (ITSISLCTPGCKTGALMGCNMRTATCHCSIHVSK; cysteine pairing not given here; also: lantibiotic nisin-A; UniProt P13068 24-57, looked up, variant K22R) | 45% | 42.5% | 56% | greatly reduced bioactivities | 
3 | M21Q: nisin A derivative, hinge substitution M21Q (ITSISLCTPGCKTGALMGCNQKTATCHCSIHVSK; cysteine pairing not given here; also: lantibiotic nisin-A; UniProt P13068 24-57, looked up, variant M21Q) | 94% | 92% | 98% | slightly diminished bioactivity | 
4 | M21R: nisin A derivative, hinge substitution M21R (ITSISLCTPGCKTGALMGCNRKTATCHCSIHVSK; cysteine pairing not given here; also: lantibiotic nisin-A; UniProt P13068 24-57, looked up, variant M21R) | 61% | 56.5% | 66% | greatly reduced bioactivities | 
5 | M21T: nisin A derivative, hinge substitution M21T (ITSISLCTPGCKTGALMGCNTKTATCHCSIHVSK; cysteine pairing not given here; also: lantibiotic nisin-A; UniProt P13068 24-57, looked up, variant M21T) | 112% | 110% | 110% |  | 
6 | N20D: nisin A derivative, hinge substitution N20D (ITSISLCTPGCKTGALMGCDMKTATCHCSIHVSK; cysteine pairing not given here; also: lantibiotic nisin-A; UniProt P13068 24-57, looked up, variant N20D) | 0% | 0% | 0% | devoid of bioactivity | 
7 | N20Y: nisin A derivative, hinge substitution N20Y (ITSISLCTPGCKTGALMGCYMKTATCHCSIHVSK; cysteine pairing not given here; also: lantibiotic nisin-A; UniProt P13068 24-57, looked up, variant N20Y) | 55% | 33.5% | 30.5% |  | 
8 | NisinA QLT (ITSISLCTPGCKTGALMGCQLTTATCHCSIHVSK; not fully specified (bridges); also: lantibiotic nisin-A: lanthionine rings and dehydrated residues, places not given here; UniProt P13068 24-57, looked up, variant N20Q M21L K22T) [nisin A hinge variant QLT (i.e. N20Q, M21L, K22T)] |  |  |  |  | bioactivity relative to a nisin A-producing control [5]: −; bioactivity relative to a nisin A-producing control [6]: −; bioactivity relative to a nisin A-producing control [7]: −; bioactivity relative to a nisin A-producing control [8]: −; bioactivity relative to a nisin A-producing control [9]: −; bioactivity relative to a nisin A-producing control [10]: −; bioactivity relative to a nisin A-producing control [11]: −; Target strain against which the hinge mutant was selected for enhanced bioactivity [4]: Strep. agalactiae ATCC 13813; Strain(s) against which the derivative (producing strain) displays enhanced bioactivity [4]: S. agalactiae ATCC13813
9 | NisinA SVA (ITSISLCTPGCKTGALMGCSVATATCHCSIHVSK; not fully specified (bridges); also: lantibiotic nisin-A: lanthionine rings and dehydrated residues, places not given here; UniProt P13068 24-57, looked up, variant N20S M21V K22A) [nisin A hinge variant SVA (i.e. N20S, M21V, K22A)] |  |  |  |  | bioactivity relative to a nisin A-producing control [5]: −; bioactivity relative to a nisin A-producing control [6]: +; bioactivity relative to a nisin A-producing control [7]: +; bioactivity relative to a nisin A-producing control [8]: +; bioactivity relative to a nisin A-producing control [9]: +; bioactivity relative to a nisin A-producing control [10]: +; bioactivity relative to a nisin A-producing control [11]: −; Target strain against which the hinge mutant was selected for enhanced bioactivity [4]: C. sporogenes UCC1; number of targets with enhanced activity ([4]; of the 8 additional targets tested): 5; Strain(s) against which the derivative (producing strain) displays enhanced bioactivity [4]: C. sporogenes UCC1, L. monocytogenes CBC2 , CBC3, S. aureus CBC4 and L. lactis CBC7 , CBC8; also recorded: C. sporogenes UCC1, L. mono CBC2, CBC3, S. aureus
